Assays:
RORγt = target: T1, RORγt (Homo sapiens, UniProt P51449); test: RORγt cellular reporter gene detection assay; type: cell-based; conditions: 24 hrs; for EC50: HEK 293 cells co-transfected with pFN26A-RORγt-LBD and pG14.35, in presence of antagonist Ursolic acid, top concentration 50 μM; for Cellular Reporter Assay Amax: upper activation limit, HEK 293 cells, in presence of antagonist Ursolic acid;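 on Cellular Reporter Assay Amax: Ursolic Acid added as 5 µL of 20 µM medium per well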
T1 construct: The plasmid of pFN26A-RORγt-LBD and pG14.35 (Promega, Cat. No. E1370) were co-transfected into HEK 293 cells; expressed in transfected cells; host or cells: HEK 293 cells (Cat. No. GNHu18)
T1 sequence (P51449 269-508 limits assumed): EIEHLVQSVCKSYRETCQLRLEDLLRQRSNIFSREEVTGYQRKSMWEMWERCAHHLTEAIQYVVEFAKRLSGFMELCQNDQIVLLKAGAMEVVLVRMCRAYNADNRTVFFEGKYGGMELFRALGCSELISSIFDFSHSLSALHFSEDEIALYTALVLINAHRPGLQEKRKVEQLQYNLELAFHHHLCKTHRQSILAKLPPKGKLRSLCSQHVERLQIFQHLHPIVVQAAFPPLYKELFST
Procedure: II. RORγt Cellular Reporter Gene Detection Assay
In this experiment, RORγt Reporter Gene Detection method was used to evaluate the activation and specificity of compounds to RORγt in cells. The plasmid of pFN26A-RORγt-LBD and pG14.35 (Promega, Cat. No. E1370) were co-transfected into HEK 293 cells (Cat. No. GNHu18). The efficacy of compounds was evaluated with the presence of an antagonist Ursolic acid (Selleck, Cat. No. S2370-100 mg). The specific experimental process was as follow: • 1. The plasmids-co-transfected cells were inoculated into a 96-well plate (Corning, Cat. No 3610) in a fresh DMEM medium (Gibco, cat. No. 1773536) containing 10% fetal bovine serum (Gibco, Cat. No. 10099-141) at 30000 cells/40 μL/well; • 2. 5 μL of medium containing 20 μM Ursolic acid was added thereto; • 3. The dose effect was evaluated by a 4-fold dilution of the test compound starting from 50 μM; • 4. 5 μL of medium containing a compound concentration of 10-fold of its final test concentration was added; • 5. After the cells were incubated at 37° C. and 5% CO2 for 24 hrs, 50 μL of detection reagent was added to detect firefly fluorescence using PerkinElmerEnVision, and 50 μL of the second detection reagent was added to detect sea kidney fluorescence; • 6. A four-parameter curve simulated in GraphPad Prism was used to determine the concentration for 50% activation (EC50) and the upper activation limit (Amax) for each compound.

RORγt-LBD = target: T2, RORγt-LBD (Homo sapiens, UniProt P51449); test: Time-resolved fluorescence resonance energy-transfer assay (TR-FRET), co-activator peptide recruitment; type: biochemical; design: TR-FRET Biochemical Amax: unit not given here; conditions: for EC50: His-RORγt-LBD 30 nM, SRC peptide 500 nM, agonistic activity, averages of one or more measurements, read-out: TR-FRET Biochemical EC50/; for TR-FRET Biochemical Amax: upper activation limit, His-RORγt-LBD, SRC peptide
T2 sequence (P51449 269-508 limits assumed): T1 sequence (P51449 269-508 limits assumed)
Source text: I. Time-Resolved Fluorescence Resonance Energy-Transfer Assay (TR-FRET)
This experiment was a screening experiment for RORγt nuclear receptor agonists based on TR-FRET technology. When His-labeled RORγt-LBD receptor binds to receptor agonists, it may increase the recruitment of biotin-labeled co-activator peptides. Europium-His-RORγt-LBD is indirectly labeled by donor (Eu) by binding to Eu-anti-His antibody. Once Eu is activated by an energy source (such as flashlight or laser), the energy will be transferred to the co-activator indirectly labeled by allophycocyanin by binding of allophycocyanin-streptavidin and biotin-labeled co-activator. • 1. 10× buffer (500 mM Tris-HCl, 500 mM KCl, and 10 mM Na-EDTA) was prepared, pH value was adjusted to 7.0. The buffer was stored at 4° C. for later use and was restored to normal temperature before experiment; • 2. The 10× buffer was diluted to 1× with pure water. Final concentration of 0.01% Triton X-100 and 1 mM DTT (dithiothreitol) were added to prepare the assay buffer; • 3. DMSO was used to prepare 1000× compound stock solution. The compound solution was serial-diluted in 5-fold for 7 concentrations from the top concentration of 1000 nM/10000 nM. Then the 10× compound solution was prepared with assay buffer. An amount of 2 μL was aliquoted into the 20 μL system; • 4. 5×RORγt-LBD protein solution was unfreezed, and a solution of 5× concentration was prepared with assay buffer to obtain a final concentration of 30 nM. The whole operation was carried out on ice; • 5. 5×SRC peptide was unfreezed, and a solution of 5× concentration was prepared with assay buffer to obtain a final concentration of 500 nM. The whole operation was carried out on ice; • 6. 4 μL/well of RORγt-LBD receptor was added into the testing wells of 384-well plate, and the same amount of assay buffer was added to the control wells of non-RORγt-LBD group; • 7. 2 μL of compound was added into each well of 384-well plate; • 8. 4 μL of SRC peptide was added into each well of 384-well plate; • 9. 2× Eu-anti-6× His/APC-Streptavidin was diluted with Lance detection buffer to a final concentration of 0.25 nM and 5 nM, respectively, and then 10 μL of 2× Eu-anti-6× His/APC-Streptavidin was added into each well of 384-well plate; • 10. The mixed solution was incubated at 4° C. overnight; • 11. On the morning of the next day, the 384-well plate was incubated at room temperature for 1 hr. Then the corresponding signal values were read with PerkinElmer EnVision at a wavelength of 665/615 […]. The agonistic activity of the corresponding compound was calculated with Graphpad Prism 7.0 software.

Row | SMILES | EC50 (RORγt) [nM] | Cellular Reporter Assay Amax (RORγt) | EC50 (RORγt-LBD) [nM] | TR-FRET Biochemical Amax (RORγt-LBD)
1 | C/C(=C\c1ccc2c(c1)N(S(=O)(=O)c1cccc(C(F)(F)F)c1)C[C@@H]1CN(C(C)C(=O)O)CCN21)c1c(F)cccc1Cl (stereo partly drawn) [Example 25, 2-((S)-8-((E)-2-(2-chloro-6-fluorophenyl)prop-1-en-1-yl)-6-((3-(trifluoromethyl)phenyl)sulfonyl)-1,2,4,4a,5,6-hexahydro-3H-pyrazino[1,2-a]quinoxalin-3-yl) propanoic acid] | 441 | 4.4 | 6.35 | 0.84
2 | CC(C(=O)O)N1CCN2c3ccc(-c4cc(F)cc(OC(F)F)c4)cc3N(S(=O)(=O)c3cccc(C(F)(F)F)c3)C[C@@H]2C1 (stereo partly drawn) [Example 26, 2-((S)-8-(3-(difluorome-thoxy)-5-fluorophenyl)-6-((3-(trifluoromethyl)phe-nyl)sulfonyl)-1,2,4,4a,5,6-hexahydro-3H-pyrazino[1,2-a]quinoxalin-3-yl) propanoic acid] | 404 | 2.3 | 29.6 | 0.64
3 | CC(C(=O)O)N1CCN2c3ccc(C4=CC(C)(C)OC(C)(C)C4)cc3N(S(=O)(=O)c3cccc(C(F)(F)F)c3)C[C@@H]2C1 (stereo partly drawn) [Example 27, 2-((S)-8-(2,2,6,6-tetrameth-yl-3,6-dihydro-2H-pyran-4-yl)-6-((3-(trifluorometh-yl)phenyl)sulfonyl)-1,2,4,4a,5,6-hexahydro-3H-pyrazino[1,2-a]quinoxalin-3-yl)propanoic acid] | 228 | 3.9 | 5.25 | 0.61
4 | N#CCC(=O)N1CCN2c3ccc(-c4cc(F)cc(OC(F)F)c4)cc3N(S(=O)(=O)c3cccc(C(F)(F)F)c3)C[C@@H]2C1 [Example 28, (S)-3-(8-(3-(difluoromethoxy)-5-fluorophenyl)-6-((3-(trifluoromethyl)phenyl)sulfonyl)-1,2,4,4a,5,6-hexahydro-3H-pyrazino[1,2-a]quinoxalin-3-yl)-3-oxopropanenitrile] | 354 | 2.6 | 14.7 | 0.86
5 | N#CCC(=O)N1CCN2c3ccc(/C=C/c4c(Cl)cccc4C(F)(F)F)cc3N(S(=O)(=O)c3cccc(C(F)(F)F)c3)C[C@@H]2C1 [Example 29, (S,E)-3-(8-(2-chloro-6-(tri-fluoromethyl)styryl)-6-((3-(trifluoromethyl)phenyl)sulfonyl)-1,2,4,4a,5,6-hexa-hydro-3H-pyrazino[1,2-a]quinoxalin-3-yl)-3-oxopro-panenitrile] | 1980 | 6.7 | 17.3 | 0.84
6 | C/C(=C\c1ccc2c(c1)N(S(=O)(=O)c1cccc(C(F)(F)F)c1)C[C@@H]1CN(C(=O)CC#N)CCN21)c1c(F)cccc1Cl [Example 30, (S,E)-3-(8-(2-(2-chloro-6-fluorophenyl)prop-1-en-1-yl)-6-((3-(trifluoromethyl)phenyl)sulfonyl)-1,2,4,4a, 5,6-hexahydro-3H-pyrazino [1,2-a]quinoxalin-3-yl)-3-oxopropanenitrile] | 404 | 4.0 | 8.34 | 0.80
7 | CC1(C)C=C(c2ccc3c(c2)N(S(=O)(=O)c2cccc(C(F)(F)F)c2)C[C@@H]2CN(C(=O)CC#N)CCN32)CC(C)(C)O1 [Example 31, (S)-3-oxo-3-(8-(2,2,6,6-tetramethyl-3,6-dihydro-2H-pyran-4-yl)-6-((3-(trifluoro-methyl)phenyl)sulfonyl)-1,2,4,4a,5,6-hexahydro-3H-pyrazino[1,2-a]quinoxa-lin-3-yl)propanenitrile] | 419 | 3.4 | 11.5 | 0.97
8 | O=S(=O)(c1cccc(C(F)(F)F)c1)N1C[C@@H]2CN(C3COC3)CCN2c2ccc(/C=C/c3c(Cl)cccc3C(F)(F)F)cc21 [Example 32, (S,E)-8-(2-chloro-6-(trifluoromethyl)styryl)-3-(oxetan-3-yl)-6-((3-(trifluoromethyl)phenyl)sulfonyl)-2,3,4,4a,5,6-hexahydro-1H-pyrazino[1,2-a]quinoxaline] | 599 | 4.3 | 10.8 | 0.93
9 | C/C(=C\c1ccc2c(c1)N(S(=O)(=O)c1cccc(C(F)(F)F)c1)C[C@@H]1CN(C3COC3)CCN21)c1c(F)cccc1Cl [Example 33, (S,E)-8-(2-(2-chloro-6-fluoro-phenyl)prop-1-en-1-yl)-3-(oxetan-3-yl)-6-((3-(trifluoro-methyl)pheny4)sulfonyl)-2,3,4,4a,5,6-hexahydro-1H-pyrazino[1,2-a]quinoxaline] | 2040 | 5.2 | 45.7 | 0.93
10 | CC1(C)C=C(c2ccc3c(c2)N(S(=O)(=O)c2cccc(C(F)(F)F)c2)C[C@@H]2CN(C4COC4)CCN32)CC(C)(C)O1 [Example 34, (S)-3-(oxetan-3-yl)-8-(2,2,6,6-tetramethyl-3,6-dihydro-2H-pyran-4-yl)-6-((3-(trifluoro-methyl)phenyl)sulfonyl)-2,3,4,4a,5,6-hexahydro-1H-pyrazino[1,2-a]quinoxaline] | 156 | 1.7 | 3.91 | 1.11
11 | O=S(=O)(c1cccc(C(F)(F)F)c1)N1C[C@@H]2CN(C[C@@H](O)CO)CCN2c2ccc(/C=C/c3c(Cl)cccc3C(F)(F)F)cc21 [Example 35, (R)-3-((S)-8-((E)-2-chloro-6-(trifluoromethyl)styryl)-6-((3-(trifluoromethyl)phenyl)sulfonyl)-1,2,4,4a,5,6-hexahydro-3H-pyrazino[1,2-a]quinoxalin-3-yl)propane-1,2-diol] | 467 | 4.2 | 24 | 1.15
12 | O=S(=O)(c1cccc(C(F)(F)F)c1)N1C[C@@H]2CN(C[C@H](O)CO)CCN2c2ccc(/C=C/c3c(Cl)cccc3C(F)(F)F)cc21 [Example 36, (S)-3-((S)-8-((E)-2-chloro-6-(trifluoromethyl)styryl)-6-((3-(trifluaromethyl)phenyl)sulfonyl)-1,2,4,4a,5,6-hexahydro-3H-pyrazino[1,2-a]quinoxalin-3-yl)-propane-1,2-diol] | 501 | 4.1 | 24.9 | 1.23
